Measured values as given in patent US9649313B2, “Use of ITK inhibitors for the treatment of cancer” (The University of North Carolina at Chapel Hill, priority 2012, dated 2017).
pIC50: −log10 of the molar value.

How the values were obtained:
[1] = molecular target: T1, AKT1 (Homo sapiens, UniProt P31749); assay: cell-free kinase assay; type: biochemical; details: single inhibitor concentration
T1 construct: purchased Carna Biosciences
Excerpt: (§1) We investigated the potency and selectivity of BI 10N against 56 kinases using a cell-free assay (Table 8A).
(§2) The selectivity of this inhibitor was investigated by testing the potency of the inhibitor at two concentrations with 53 kinases by Carna Biosciences (MA) (Table 2).

[2] = molecular target: T2, AMPKα1/β1/γ1 (Homo sapiens, UniProt Q13131); assay: cell-free kinase assay; type: biochemical; details: single inhibitor concentration
T2 construct: purchased Carna Biosciences
T2 sequence (Q13131 10-559 limits assumed): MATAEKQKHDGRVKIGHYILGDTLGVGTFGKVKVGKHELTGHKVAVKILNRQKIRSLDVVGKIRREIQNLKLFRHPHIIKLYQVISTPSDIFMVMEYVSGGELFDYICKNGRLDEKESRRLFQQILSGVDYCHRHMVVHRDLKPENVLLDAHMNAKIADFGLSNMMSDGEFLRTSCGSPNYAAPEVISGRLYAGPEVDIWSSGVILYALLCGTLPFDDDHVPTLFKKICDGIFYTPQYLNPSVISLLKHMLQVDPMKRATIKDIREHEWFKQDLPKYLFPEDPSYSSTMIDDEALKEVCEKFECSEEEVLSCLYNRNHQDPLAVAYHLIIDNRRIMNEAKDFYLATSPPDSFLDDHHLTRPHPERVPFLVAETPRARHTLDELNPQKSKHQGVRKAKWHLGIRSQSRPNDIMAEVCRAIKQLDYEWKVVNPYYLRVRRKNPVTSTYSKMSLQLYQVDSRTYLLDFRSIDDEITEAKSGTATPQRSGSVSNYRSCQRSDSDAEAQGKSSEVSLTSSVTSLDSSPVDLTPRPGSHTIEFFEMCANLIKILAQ
T2 sequence (Q9Y478 whole entry partner): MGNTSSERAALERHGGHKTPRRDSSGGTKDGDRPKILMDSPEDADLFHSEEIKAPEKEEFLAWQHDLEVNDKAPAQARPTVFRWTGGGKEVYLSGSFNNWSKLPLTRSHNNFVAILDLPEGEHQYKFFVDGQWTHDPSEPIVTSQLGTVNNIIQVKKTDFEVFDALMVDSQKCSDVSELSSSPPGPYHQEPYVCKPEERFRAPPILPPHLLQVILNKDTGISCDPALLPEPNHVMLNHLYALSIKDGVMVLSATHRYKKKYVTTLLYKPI
T2 sequence (P54619 whole entry partner): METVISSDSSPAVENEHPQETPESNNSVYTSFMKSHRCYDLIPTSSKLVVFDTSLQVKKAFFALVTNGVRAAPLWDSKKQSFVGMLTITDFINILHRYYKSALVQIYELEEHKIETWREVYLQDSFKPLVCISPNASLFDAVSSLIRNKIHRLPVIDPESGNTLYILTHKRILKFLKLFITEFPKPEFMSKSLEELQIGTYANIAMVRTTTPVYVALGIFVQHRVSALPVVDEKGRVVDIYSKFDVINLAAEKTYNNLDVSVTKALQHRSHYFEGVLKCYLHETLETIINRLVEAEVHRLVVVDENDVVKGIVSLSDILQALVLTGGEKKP
Excerpt: as §1, §2

[3] = molecular target: T3, BLK (Homo sapiens, UniProt P51451); assay: cell-free kinase assay; type: biochemical; details: ATP concentration at approximately the Km for ATP
T3 construct: purchased Carna Biosciences
Excerpt: as §1, §2

[4] = molecular target: T4, CDK2/CycA2 (Homo sapiens, UniProt P24941); assay: cell-free kinase assay; type: biochemical; details: single inhibitor concentration
T4 construct: purchased Carna Biosciences
Excerpt: as §1, §2

[5] = molecular target: T5, DAPK1 (Homo sapiens, UniProt P53355); assay: cell-free kinase assay; type: biochemical; details: single inhibitor concentration
T5 construct: purchased Carna Biosciences
Excerpt: as §1, §2

[6] = molecular target: T6, EGFR (Homo sapiens, UniProt P00533); assay: cell-free kinase assay; type: biochemical; details: single inhibitor concentration
T6 construct: purchased Carna Biosciences
Excerpt: as §1, §2

[7] = molecular target: T7, HGK (Homo sapiens, UniProt O95819); assay: cell-free kinase assay; type: biochemical
T7 construct: purchased Carna Biosciences
T7 sequence (O95819 whole entry): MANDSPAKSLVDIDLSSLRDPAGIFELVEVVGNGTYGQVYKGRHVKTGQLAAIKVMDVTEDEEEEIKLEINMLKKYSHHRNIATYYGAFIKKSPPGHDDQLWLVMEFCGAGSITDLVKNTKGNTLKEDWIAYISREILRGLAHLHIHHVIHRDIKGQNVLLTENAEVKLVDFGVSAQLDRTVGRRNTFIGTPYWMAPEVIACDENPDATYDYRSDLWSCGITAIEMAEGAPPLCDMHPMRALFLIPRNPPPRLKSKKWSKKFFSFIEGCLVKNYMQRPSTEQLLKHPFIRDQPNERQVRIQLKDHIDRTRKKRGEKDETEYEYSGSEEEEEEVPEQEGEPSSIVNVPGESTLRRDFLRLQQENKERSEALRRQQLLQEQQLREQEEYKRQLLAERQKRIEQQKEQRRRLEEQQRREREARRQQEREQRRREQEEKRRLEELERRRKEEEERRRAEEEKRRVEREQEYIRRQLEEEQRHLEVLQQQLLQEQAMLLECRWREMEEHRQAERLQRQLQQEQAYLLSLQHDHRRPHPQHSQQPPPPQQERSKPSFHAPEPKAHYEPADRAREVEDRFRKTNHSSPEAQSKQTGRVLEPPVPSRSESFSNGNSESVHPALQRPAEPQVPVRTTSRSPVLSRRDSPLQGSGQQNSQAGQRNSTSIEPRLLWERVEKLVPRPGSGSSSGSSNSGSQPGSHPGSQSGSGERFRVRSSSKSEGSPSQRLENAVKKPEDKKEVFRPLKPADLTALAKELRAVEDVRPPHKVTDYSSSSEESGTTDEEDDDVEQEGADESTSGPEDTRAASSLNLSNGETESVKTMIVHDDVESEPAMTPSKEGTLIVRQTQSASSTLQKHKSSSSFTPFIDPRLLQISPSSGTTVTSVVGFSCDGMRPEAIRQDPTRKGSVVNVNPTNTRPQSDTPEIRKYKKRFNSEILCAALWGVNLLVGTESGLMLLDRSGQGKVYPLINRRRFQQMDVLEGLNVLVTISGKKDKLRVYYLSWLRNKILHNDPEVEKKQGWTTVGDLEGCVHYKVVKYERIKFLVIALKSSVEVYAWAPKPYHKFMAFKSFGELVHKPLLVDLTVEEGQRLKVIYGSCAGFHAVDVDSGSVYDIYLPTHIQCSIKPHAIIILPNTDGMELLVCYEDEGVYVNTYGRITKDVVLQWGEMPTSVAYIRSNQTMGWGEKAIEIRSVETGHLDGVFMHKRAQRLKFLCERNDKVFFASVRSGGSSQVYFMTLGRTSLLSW
Excerpt: as §1, §2

[8] = molecular target: T8, IKKβ (Homo sapiens, UniProt O14920); assay: cell-free kinase assay; type: biochemical; details: single inhibitor concentration
T8 construct: purchased Carna Biosciences
T8 sequence (O14920 whole entry): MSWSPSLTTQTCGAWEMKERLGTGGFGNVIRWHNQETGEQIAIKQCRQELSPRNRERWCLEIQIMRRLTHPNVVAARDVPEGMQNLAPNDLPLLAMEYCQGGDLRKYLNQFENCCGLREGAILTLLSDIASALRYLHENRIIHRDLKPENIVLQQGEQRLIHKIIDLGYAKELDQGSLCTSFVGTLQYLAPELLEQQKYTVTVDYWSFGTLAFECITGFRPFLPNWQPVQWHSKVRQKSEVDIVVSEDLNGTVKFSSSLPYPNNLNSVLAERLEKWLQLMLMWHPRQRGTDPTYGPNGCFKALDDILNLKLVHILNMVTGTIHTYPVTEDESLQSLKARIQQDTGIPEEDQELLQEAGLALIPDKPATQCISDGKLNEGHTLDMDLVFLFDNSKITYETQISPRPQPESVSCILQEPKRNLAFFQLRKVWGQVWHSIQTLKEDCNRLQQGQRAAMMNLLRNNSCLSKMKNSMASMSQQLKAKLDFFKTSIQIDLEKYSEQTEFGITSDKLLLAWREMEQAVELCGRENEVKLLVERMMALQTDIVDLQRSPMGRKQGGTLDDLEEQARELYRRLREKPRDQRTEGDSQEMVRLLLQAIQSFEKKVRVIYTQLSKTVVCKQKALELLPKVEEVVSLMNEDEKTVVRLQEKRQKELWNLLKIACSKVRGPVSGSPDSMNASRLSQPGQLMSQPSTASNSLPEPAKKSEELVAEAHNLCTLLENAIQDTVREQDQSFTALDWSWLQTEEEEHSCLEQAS
Excerpt: as §1, §2

[9] = molecular target: T9, MET (Homo sapiens, UniProt P08581); assay: cell-free kinase assay; type: biochemical; details: single inhibitor concentration
T9 construct: purchased Carna Biosciences
Excerpt: as §1, §2

[10] = molecular target: T10, MST1 (Homo sapiens, UniProt Q13043); assay: cell-free kinase assay; type: biochemical
T10 construct: purchased Carna Biosciences
T10 sequence (Q13043 1-487): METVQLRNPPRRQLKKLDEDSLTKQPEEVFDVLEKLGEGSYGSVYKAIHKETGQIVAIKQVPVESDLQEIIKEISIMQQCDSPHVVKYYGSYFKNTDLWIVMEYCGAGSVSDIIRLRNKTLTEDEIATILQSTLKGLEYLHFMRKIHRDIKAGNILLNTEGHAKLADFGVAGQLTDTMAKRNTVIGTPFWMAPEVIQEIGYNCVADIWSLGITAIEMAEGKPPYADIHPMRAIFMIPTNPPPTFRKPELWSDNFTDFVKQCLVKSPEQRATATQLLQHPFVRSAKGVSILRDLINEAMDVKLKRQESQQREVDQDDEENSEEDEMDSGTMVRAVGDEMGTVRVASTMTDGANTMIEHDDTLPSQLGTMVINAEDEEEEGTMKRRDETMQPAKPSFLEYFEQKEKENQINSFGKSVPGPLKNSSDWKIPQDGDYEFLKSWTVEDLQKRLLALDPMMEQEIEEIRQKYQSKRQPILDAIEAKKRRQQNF
Excerpt: as §1, §2

[11] = molecular target: T11, PBK (Homo sapiens, UniProt Q96KB5); assay: cell-free kinase assay; type: biochemical; details: single inhibitor concentration
T11 construct: purchased Carna Biosciences
T11 sequence (Q96KB5 whole entry): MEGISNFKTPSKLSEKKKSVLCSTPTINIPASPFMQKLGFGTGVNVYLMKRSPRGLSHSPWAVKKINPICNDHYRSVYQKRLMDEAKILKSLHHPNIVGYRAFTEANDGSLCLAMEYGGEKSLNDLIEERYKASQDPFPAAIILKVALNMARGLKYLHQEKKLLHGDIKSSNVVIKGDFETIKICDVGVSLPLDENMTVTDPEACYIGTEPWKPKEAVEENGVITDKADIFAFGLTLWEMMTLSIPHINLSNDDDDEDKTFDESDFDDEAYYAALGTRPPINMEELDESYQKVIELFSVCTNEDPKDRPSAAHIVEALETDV
Excerpt: as §1, §2

[12] = molecular target: T12, PDK1 (Homo sapiens, UniProt O15530); assay: cell-free kinase assay; type: biochemical; details: single inhibitor concentration
T12 construct: purchased Carna Biosciences
Excerpt: as §1, §2

[13] = molecular target: T13, PKACα (Homo sapiens, UniProt P17612); assay: cell-free kinase assay; type: biochemical; details: single inhibitor concentration
T13 construct: purchased Carna Biosciences
Excerpt: as §1, §2

[14] = molecular target: T14, PKD2 (Homo sapiens, UniProt Q9BZL6); assay: cell-free kinase assay; type: biochemical; details: single inhibitor concentration
T14 construct: purchased Carna Biosciences
Excerpt: as §1, §2

[15] = molecular target: T15, ROCK1 (Homo sapiens, UniProt Q13464); assay: cell-free kinase assay; type: biochemical; details: single inhibitor concentration
T15 construct: purchased Carna Biosciences
Excerpt: as §1, §2

[16] = molecular target: T16, SRC (Homo sapiens, UniProt P12931); assay: cell-free kinase assay; type: biochemical
T16 construct: purchased Carna Biosciences
T16 sequence (P12931 whole entry): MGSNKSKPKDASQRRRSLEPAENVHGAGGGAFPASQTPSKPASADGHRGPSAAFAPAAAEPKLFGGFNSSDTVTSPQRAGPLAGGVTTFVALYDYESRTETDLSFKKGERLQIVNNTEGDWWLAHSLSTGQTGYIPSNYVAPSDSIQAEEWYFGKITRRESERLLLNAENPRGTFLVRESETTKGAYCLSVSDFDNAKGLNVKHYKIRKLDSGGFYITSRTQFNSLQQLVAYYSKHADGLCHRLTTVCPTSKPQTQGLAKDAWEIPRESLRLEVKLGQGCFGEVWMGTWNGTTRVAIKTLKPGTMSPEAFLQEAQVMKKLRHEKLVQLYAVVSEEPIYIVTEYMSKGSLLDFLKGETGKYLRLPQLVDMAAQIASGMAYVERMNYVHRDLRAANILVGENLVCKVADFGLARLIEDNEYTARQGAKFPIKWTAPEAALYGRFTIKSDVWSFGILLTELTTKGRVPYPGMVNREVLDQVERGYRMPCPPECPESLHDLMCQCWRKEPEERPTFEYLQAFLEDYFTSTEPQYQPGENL
Excerpt: as §1, §2

[17] = molecular target: T17, p38α (Homo sapiens, UniProt Q16539); assay: cell-free kinase assay; type: biochemical; details: single inhibitor concentration
T17 construct: purchased Carna Biosciences
Excerpt: as §1, §2

[18] = molecular target: T18, p70S6K (Homo sapiens, UniProt P23443); assay: cell-free kinase assay; type: biochemical; details: single inhibitor concentration
T18 construct: purchased Carna Biosciences
T18 sequence (P23443 whole entry): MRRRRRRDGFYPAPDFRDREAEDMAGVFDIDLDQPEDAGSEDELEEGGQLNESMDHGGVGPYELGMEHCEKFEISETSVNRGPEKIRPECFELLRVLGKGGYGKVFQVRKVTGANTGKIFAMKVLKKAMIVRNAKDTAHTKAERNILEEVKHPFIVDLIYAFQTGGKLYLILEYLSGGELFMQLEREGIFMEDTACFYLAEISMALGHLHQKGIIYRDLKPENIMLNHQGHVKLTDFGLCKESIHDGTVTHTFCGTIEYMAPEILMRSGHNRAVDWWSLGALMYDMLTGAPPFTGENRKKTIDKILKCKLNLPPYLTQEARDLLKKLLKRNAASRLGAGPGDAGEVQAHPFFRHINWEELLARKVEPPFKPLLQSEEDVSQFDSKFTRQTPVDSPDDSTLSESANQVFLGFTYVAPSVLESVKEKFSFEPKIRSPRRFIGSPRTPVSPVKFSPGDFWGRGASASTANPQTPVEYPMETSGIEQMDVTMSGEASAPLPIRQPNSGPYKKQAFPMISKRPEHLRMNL
Excerpt: as §1, §2

[19] = tested on: A375 (ITKINT) melanoma cell line; assay: single cell motility assay; type: cell-based, Human
Procedure: (§3) FIG. 5A-5C. Effects of BI 10N inhibitor on proliferation and motility of melanoma cells. FIG. 5A) Cell motility assays were performed as described in FIG. 4A-4E; however, the inhibitor BI 10N was added to the media to decrease ITK kinase activity in parental cell lines instead of using the shRNA ITK knockdown cell lines. BI 10N was added to the media 24 hours prior to the start of the motility assay and the VivaView camera system was used to image cellular motility of the melanoma cells as described previously. FIG. 5B) The proliferation assays were completed as described in FIG. 4A-4E, substituting the BI 10N compound for the shRNA. Cells were trypsinized and counted using the Invitrogen Countess. Fifty thousand cells were placed into each well of a 6 well plate and BI 10N was added to the indicated concentrations. The cells were counted with the Invitrogen Countess at 3, 5, and 6 or 7 days after plating to assess the proliferation rates of the different cell lines in the presence of BI 10N. FIG. 5C) Both ITKHI (RPMI 8322) and ITKLO (PMWK) melanoma cell lines were grown in the presence of BI 10N (10-200 nM) in soft agar. In 24-well cell culture plates 2,500 cells per well were added to a 1.4% agarose solution. The agarose and cell solution was then poured on top of a solidified base agar. The cells were incubated at 37° C. for three to four weeks to ensure adequate growth before analysis. FIG. 5D) Cell cycle analysis of PMWK, VMM 39, and RPMI 8322 cells that have been treated with increasing concentrations of BI 10N. Following 3 days of BI 10N treatment, the cells were incubated with EdU for 3 hours and were subsequently assessed for 5-ethynyl-2′-deoxyuridine (EdU) incorporation rate and DNA content with FxCycle Violet. Shown in this panel are the percentages of cells in G0/G1 (low DNA and EdU content), S (high EdU and low-to-medium DNA content), and G2/M (Low EdU and high DNA content)
(§4) Single cell tracking was performed as described (Williams et al., 2012 Circ Res 111(1):56-65). Briefly melanoma cells were plated on 5 μg/cm2 collagen coated MatTek dishes (MatTek Corp., Ashland, Mass. part #P35G-1.5-10-C) and allowed to attach for 24 hours in the presence of either DMSO (1:1000) or BI 10N in DMSO. Cells were monitored for 16 hours using the Olympus VivaView live cell imaging microscope system. Images were taken at a magnification of 10× and were converted to stacks using Image J software. Single-cells were tracked using Image J manual tracking software and velocities were obtained.

[20] = tested on: SKMEL 103 (ITKINT) melanoma cell line; assay: single cell motility assay; type: cell-based, Human
Procedure: as §3, §4

T1 sequence (P31749 whole entry): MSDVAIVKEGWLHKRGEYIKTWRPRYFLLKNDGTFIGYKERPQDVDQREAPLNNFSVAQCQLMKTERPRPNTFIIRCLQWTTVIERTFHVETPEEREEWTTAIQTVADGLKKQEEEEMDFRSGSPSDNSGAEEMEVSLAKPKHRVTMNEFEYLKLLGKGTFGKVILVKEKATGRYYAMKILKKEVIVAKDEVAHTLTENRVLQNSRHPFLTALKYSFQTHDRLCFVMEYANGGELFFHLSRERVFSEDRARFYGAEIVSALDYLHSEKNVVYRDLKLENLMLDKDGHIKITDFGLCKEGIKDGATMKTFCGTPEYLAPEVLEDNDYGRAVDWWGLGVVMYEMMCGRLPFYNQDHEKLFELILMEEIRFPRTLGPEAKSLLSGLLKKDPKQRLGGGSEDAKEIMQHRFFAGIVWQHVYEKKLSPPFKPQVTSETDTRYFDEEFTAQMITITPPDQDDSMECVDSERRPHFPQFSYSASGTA

SMILES: CC(C)C(C)CNCc1ccc2c(c1)[nH]/c(=N\C(=O)c1ccc(C3=CN=NC3)s1)n2CC(C)(C)O (stereo not shown) [BI 10N]
- inhibition at 0.2 µM [1]: -2.2%
- inhibition at 0.2 µM [2]: 15.3%
- pIC50 [3]: 7.28
- inhibition at 0.2 µM [4]: 72.3%
- inhibition at 0.2 µM [5]: 5.5%
- inhibition at 0.2 µM [6]: 8.6%
- pIC50 ([7]; Table 2, by Carna Biosciences): 7.92
- inhibition at 0.2 µM ([7]; single inhibitor concentration): 100%
- inhibition at 0.2 µM [8]: -2.4%
- inhibition at 0.2 µM [9]: 4.1%
- pIC50 ([10]; Table 2, by Carna Biosciences): 7.59
- inhibition at 0.2 µM ([10]; single inhibitor concentration): 91.7%
- inhibition at 0.2 µM [11]: 1.7%
- inhibition at 0.2 µM [12]: 1.5%
- inhibition at 0.2 µM [13]: 2.5%
- inhibition at 0.2 µM [14]: 7%
- inhibition at 0.2 µM [15]: 33%
- pIC50 ([16]; Table 2, by Carna Biosciences): 8.42
- inhibition at 0.2 µM ([16]; single inhibitor concentration): 99.9%
- inhibition at 0.2 µM [17]: -4.1%
- inhibition at 0.2 µM [18]: 7.6%
- concentration required for smaller changes in migration [19]: ≥ 150 nM
- effect on migration ([19]; 10-25 nM): unaffected
- concentration required for smaller changes in migration [20]: ≥ 150 nM
- effect on migration ([20]; 10-25 nM): unaffected
